Measured values: ChEMBL document CHEMBL1201862, “PubChem BioAssay data set” (2004)
Active and inactive are the calls of the source.

How the values were obtained:
[1] = system: INS1; test: INS-1E survival protection against cytokine death – cell-based, luminescence, retest, dose response (AID 449756); type: functional; settings: Rattus norvegicus;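 also: cell death triggered by IL-1 beta plus TNF-alpha plus IFN-gamma mixture; protective hits raise ATP signal compared with cytokine alone wells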
[2] = viability loss in HEK293T cells – cell-based, cherry-picks, cytotoxicity control for HIV Vif inhibitor project, dose response (AID 652208); type: functional
[3] = molecular target: Photoreceptor-specific nuclear receptor (Homo sapiens, UniProt Q9Y5X4); type: functional, cell-based;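 also: CHO-S cells with Gal4-NCOR and VP16-NR2E3 two-hybrid luciferase reporter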
[4] = molecular target: SWI/SNF-related matrix-associated actin-dependent regulator of chromatin subfamily A member 2 (Homo sapiens, UniProt P51531); test: Luminescence-based cell-based high throughput dose response assay to identify activators of the function of SWI/SNF related, matrix associated, actin dependent regulator of chromatin, subfamily a, member 2 (SMARCA2, BRM).; type: functional
[5] = Counterscreen for activators of the function of SWI/SNF related, matrix associated, actin dependent regulator of chromatin, subfamily a, member 2 (SMARCA2, BRM): Luminescence-based cell-based high throughput dose response assay to identify non-selective compounds using the VP16 reporter assay.; type: functional
[6] = molecular target: T1, Methionyl-tRNA synthetase, putative (Trypanosoma brucei brucei, UniProt Q38C91); type: functional, Trypanosoma brucei brucei strain 927/4 GUTat10.1
[7] = molecular target: T2, Heat shock factor protein 1 (Mus musculus, UniProt P38532); test: enhancement of HSF1-driven luciferase signal – cell-based, NIH3T3, luminescence, dose retest, confirmation (AID 435004); type: functional;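 also: stress induced by proteasome inhibitor MG132 added 30 min after compound; luciferase reporter driven by HSF1 response element in NIH3T3 cells; actives raise luminescence as potentiators of the MG132 stress response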
T2 sequence (P38532 whole entry): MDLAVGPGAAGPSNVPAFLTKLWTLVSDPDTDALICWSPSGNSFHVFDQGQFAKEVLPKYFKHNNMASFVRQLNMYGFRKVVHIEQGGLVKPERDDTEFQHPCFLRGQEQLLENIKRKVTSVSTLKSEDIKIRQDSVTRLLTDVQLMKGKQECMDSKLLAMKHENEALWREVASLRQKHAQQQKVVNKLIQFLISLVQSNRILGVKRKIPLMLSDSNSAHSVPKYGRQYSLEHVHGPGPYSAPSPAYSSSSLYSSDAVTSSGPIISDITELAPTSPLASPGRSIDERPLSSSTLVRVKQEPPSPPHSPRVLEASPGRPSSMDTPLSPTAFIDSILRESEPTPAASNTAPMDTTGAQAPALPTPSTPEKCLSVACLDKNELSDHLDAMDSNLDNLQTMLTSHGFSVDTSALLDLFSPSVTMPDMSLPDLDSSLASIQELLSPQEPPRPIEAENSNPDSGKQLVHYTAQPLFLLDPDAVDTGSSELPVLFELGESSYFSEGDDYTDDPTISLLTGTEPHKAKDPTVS

[8] = molecular target: Phospholipase A2 (Homo sapiens, UniProt P04054); type: functional;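 also: confirmatory dose-response counterscreen on phospholipase A2, testing hits that came from an ultra-high-throughput screen for ATG4B inhibitors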
[9] = molecular target: T1, Methionyl-tRNA synthetase, putative; type: functional, Trypanosoma brucei brucei strain 927/4 GUTat10.1; remark: listed apart in the source
[10] = molecular target: T3, Cysteine protease ATG4B (Homo sapiens, UniProt Q9Y4P1); type: functional;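 also: Fluorescence-based dose-response confirmation assay measuring inhibition of ATG4B activity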
T3 sequence (Q9Y4P1 whole entry): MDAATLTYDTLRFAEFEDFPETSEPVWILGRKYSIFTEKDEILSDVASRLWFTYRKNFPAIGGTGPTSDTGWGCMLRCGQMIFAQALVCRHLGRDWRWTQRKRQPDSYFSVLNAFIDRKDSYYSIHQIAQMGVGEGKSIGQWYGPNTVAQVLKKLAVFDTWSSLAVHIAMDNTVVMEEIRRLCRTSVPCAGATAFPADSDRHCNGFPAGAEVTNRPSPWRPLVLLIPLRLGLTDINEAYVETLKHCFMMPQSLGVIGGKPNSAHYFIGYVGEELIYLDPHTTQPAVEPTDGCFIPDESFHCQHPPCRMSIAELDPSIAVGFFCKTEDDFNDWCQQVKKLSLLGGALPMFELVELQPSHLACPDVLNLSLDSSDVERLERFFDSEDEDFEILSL

[11] = molecular target: T4, Streptokinase A (Streptococcus pyogenes serotype M1, UniProt P10520); test: viability-normalized secreted streptokinase activity reduction – plasminogen activation absorbance, OD405, dose response (AID 1914); type: functional, Streptococcus pyogenes M1 GAS;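 also: secreted streptokinase activity via plasminogen activation per viability signal from cell pellet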
T4 sequence (P10520 whole entry): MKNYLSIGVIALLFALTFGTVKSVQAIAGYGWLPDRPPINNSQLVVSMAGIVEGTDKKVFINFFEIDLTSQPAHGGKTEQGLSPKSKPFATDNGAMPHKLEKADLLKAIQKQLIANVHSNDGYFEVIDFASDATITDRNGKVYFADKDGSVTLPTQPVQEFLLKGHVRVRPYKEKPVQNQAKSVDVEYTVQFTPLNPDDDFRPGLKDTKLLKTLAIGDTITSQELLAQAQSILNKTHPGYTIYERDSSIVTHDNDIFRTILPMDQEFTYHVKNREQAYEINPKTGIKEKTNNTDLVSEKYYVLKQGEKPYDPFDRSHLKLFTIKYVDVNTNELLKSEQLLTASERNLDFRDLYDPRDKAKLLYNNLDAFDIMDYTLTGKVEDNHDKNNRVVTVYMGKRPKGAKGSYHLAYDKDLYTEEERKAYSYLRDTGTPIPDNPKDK

[12] = Counterscreen for inhibitors of Trypanosoma brucei methionyl tRNA synthetase (MetRS): Luminescence-based cell-based high throughput dose response assay to identify compounds that are cytotoxic to Jurkat human T lymphocyte cells.; type: functional
[13] = system: Streptococcus; test: GAS UMAA2166 growth inhibition – luminescence, BacTiterGlo, counter-screen for streptokinase expression inhibitor project, dose response (AID 1915); type: functional, organism-based;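 also: potency for reduction of bacterial viability or growth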
[14] = system: Streptococcus sp. 'group A'; test: Streptococcus pyogenes SK(-)GAS viability under kanamycin – luminescence, BacTiterGlo, confirmation, counter-screen for streptokinase expression inhibitor project, dose response (AID 1900); type: functional, organism-based
[15] = viability loss in THP-1 monocytes – THP-1 cells, cytotoxicity control for Vif-APOBEC3G degradation inhibitor project, dose response (AID 1117359); type: functional; settings: THP-1
[16] = HIV-1 Vif–A3G interaction blockers – biochemical, TR-FRET, GST-Vif 1-94, biotin-A3G peptide, dose response retest, primary screen (AID 1117319); type: functional;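 also: TR-FRET signal of purified GST-Vif binding a biotinylated A3G peptide; inhibitors lower the FRET signal by blocking Vif and A3G binding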
[17] = molecular target: Botulinum neurotoxin type F (Clostridium botulinum, UniProt P30996); test: High-throughput multiplex microsphere dose response for inhibitors of toxin protease, specifically Botulinum neurotoxin light chain F protease, compounds from Cherry Pick 02.; type: functional; settings: read-out: EC50_MICROM
[18] = molecular target: T5, Small ubiquitin-related modifier 1 (Homo sapiens, UniProt P63165); test: SUMO1 protein-protein binding blockers, potency – biochemical, FRET, dose response (AID 624383); type: functional; settings: read-out: IC50_Mean
[19] = molecular target: Arf-GAP with SH3 domain, ANK repeat and PH domain-containing protein 1 (Homo sapiens, UniProt Q9ULH1); type: functional;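 also: biochemical fluorescence polarization dose–response screen measuring inhibition of ASAP1; ASAP1 GAP domain stimulating GTP hydrolysis by truncated human ARF1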
[20] = molecular target: T5, Small ubiquitin-related modifier 1; test: SUMO1 protein interaction blockers, potency – biochemical, fluorescence polarization, uHTS hits, dose response (AID 624382); type: functional; settings: read-out: IC50_Mean
[21] = molecular target: ADP-ribosylation factor GTPase-activating protein 1 (Rattus norvegicus, UniProt Q62848); test: Fluorescence polarization-based biochemical high throughput dose response screening assay to identify inhibitors of ADP-ribosylation factor GTPase activating protein 1 (ARFGAP1).; type: functional
[22] = molecular target: 5-hydroxytryptamine receptor 5A (Homo sapiens, UniProt P47898); test: Counterscreen for agonists of OPRM1-OPRD1 heterodimerization: luminescence-based cell-based high throughput dose response assay to identify agonists of 5-hydroxytryptamine (serotonin) 5A receptor (HTR5A). [Related pubchem assays (depositor defined):AID504326, AID504355, AID504692, AID504904, AID504905]; type: functional
[23] = Late-stage results from the probe development effort to identify activators of OPRM1 and OPRD1 heterodimer formation: luminescence-based cell-based dose response counterscreen assay to determine cytotoxicity of test compounds.; type: functional
[24] = molecular target: Mu-type opioid receptor (Homo sapiens, UniProt P35372); test: (§1) Counterscreen for agonists of heterodimerization of the mu 1 (OPRM1) and delta 1 (OPRD1) opioid receptors: Luminescence-based cell-based high throughput dose response assay to identify agonists of OPRM1 homodimerization.; type: functional
[25] = molecular target: Delta-type opioid receptor (Homo sapiens, UniProt P41143); test: as §1, with “of OPRD1” for “of OPRM1”, “homodimerization. [Related pubchem assays (depositor defined):AID504326, AID504355, AID504692, AID504904, AID504905]” for “homodimerization.”; type: functional
[26] = molecular target: T6, Short transient receptor potential channel 4 (Mus musculus, UniProt Q9QUQ5); test: calcium entry via TRPC4 opening agents – cell-based, HEK293 TRPC4/mu-opioid, Fluo-4 calcium, dose response (AID 434937); type: functional
T6 sequence (Q9QUQ5 whole entry): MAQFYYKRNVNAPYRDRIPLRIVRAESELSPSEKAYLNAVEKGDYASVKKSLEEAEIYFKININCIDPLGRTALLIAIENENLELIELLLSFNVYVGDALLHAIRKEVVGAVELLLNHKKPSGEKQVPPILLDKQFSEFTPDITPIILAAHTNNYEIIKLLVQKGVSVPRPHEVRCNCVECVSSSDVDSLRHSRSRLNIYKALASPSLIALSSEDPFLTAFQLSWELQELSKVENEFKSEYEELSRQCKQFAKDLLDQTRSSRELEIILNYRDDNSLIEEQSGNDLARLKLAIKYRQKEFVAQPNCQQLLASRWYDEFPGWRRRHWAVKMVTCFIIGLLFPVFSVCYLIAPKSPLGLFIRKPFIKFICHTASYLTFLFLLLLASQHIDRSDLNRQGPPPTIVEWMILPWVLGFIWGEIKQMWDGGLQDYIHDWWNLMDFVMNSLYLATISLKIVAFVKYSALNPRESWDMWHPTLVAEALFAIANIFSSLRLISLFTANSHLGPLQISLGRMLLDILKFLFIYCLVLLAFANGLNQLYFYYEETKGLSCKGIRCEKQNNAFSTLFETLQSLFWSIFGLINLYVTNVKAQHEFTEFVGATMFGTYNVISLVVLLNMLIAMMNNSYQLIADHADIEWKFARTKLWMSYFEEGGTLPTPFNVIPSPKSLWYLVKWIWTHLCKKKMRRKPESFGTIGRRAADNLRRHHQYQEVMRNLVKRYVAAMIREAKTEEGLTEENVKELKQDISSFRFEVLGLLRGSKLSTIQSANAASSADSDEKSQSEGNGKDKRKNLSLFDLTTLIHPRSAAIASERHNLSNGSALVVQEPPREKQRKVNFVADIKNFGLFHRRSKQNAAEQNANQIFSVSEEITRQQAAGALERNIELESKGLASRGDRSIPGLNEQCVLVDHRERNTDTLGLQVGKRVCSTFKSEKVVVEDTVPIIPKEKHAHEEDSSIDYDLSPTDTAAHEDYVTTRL

[27] = system: Vero; test: viability loss in Vero cells – cell-based, plate reader, cherry-pick samples, cytotoxicity control, dose response (AID 687020); type: functional; settings: Chlorocebus sabaeus
[28] = system: H9c2; test: cells; type: functional, cell-based; settings: Rattus norvegicus, H9c2, Myocardium;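 also: confirmatory concentration-response retest of ultra-high-throughput screening hits for modulation of myocardial damage; cell death induced by hydrogen peroxide oxidative stress; compound pretreatment for 60 min then peroxide exposure for 2 h; potency is for protecting the cells against peroxide damage rather than for killing them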

T5 sequence (P63165 whole entry, the tested form may be a part): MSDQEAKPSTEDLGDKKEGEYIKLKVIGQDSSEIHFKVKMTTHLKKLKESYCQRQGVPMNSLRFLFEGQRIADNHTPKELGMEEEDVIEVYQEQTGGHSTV
T1 sequence (Q38C91 whole entry): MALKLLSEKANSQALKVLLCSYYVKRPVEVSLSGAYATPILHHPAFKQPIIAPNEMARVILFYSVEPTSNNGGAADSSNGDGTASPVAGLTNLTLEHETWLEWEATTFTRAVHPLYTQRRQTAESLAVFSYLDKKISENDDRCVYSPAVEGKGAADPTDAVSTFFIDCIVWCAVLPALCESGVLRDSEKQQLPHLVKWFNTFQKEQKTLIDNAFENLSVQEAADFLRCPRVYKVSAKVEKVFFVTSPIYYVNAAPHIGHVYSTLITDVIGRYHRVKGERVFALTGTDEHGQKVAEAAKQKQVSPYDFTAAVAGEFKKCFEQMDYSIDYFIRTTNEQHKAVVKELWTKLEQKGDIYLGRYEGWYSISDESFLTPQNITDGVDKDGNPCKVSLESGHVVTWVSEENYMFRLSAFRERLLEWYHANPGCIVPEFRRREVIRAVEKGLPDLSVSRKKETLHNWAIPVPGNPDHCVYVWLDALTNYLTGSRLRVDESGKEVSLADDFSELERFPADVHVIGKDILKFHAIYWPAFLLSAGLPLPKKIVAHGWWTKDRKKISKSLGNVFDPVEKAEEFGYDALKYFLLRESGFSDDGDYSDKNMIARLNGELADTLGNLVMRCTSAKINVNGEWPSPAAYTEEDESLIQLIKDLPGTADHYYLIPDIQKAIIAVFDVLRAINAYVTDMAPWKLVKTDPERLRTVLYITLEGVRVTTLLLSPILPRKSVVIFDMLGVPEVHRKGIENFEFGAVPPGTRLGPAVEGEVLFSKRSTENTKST
Sequence of Phospholipase A2 (P04054 whole entry): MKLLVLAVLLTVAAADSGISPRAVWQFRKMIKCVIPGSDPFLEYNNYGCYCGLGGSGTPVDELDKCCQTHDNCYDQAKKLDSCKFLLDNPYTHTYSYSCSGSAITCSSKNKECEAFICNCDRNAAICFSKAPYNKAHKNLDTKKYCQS
Sequence of SWI/SNF-related matrix-associated actin-dependent regulator of chromatin subfamily A member 2 (P51531 whole entry): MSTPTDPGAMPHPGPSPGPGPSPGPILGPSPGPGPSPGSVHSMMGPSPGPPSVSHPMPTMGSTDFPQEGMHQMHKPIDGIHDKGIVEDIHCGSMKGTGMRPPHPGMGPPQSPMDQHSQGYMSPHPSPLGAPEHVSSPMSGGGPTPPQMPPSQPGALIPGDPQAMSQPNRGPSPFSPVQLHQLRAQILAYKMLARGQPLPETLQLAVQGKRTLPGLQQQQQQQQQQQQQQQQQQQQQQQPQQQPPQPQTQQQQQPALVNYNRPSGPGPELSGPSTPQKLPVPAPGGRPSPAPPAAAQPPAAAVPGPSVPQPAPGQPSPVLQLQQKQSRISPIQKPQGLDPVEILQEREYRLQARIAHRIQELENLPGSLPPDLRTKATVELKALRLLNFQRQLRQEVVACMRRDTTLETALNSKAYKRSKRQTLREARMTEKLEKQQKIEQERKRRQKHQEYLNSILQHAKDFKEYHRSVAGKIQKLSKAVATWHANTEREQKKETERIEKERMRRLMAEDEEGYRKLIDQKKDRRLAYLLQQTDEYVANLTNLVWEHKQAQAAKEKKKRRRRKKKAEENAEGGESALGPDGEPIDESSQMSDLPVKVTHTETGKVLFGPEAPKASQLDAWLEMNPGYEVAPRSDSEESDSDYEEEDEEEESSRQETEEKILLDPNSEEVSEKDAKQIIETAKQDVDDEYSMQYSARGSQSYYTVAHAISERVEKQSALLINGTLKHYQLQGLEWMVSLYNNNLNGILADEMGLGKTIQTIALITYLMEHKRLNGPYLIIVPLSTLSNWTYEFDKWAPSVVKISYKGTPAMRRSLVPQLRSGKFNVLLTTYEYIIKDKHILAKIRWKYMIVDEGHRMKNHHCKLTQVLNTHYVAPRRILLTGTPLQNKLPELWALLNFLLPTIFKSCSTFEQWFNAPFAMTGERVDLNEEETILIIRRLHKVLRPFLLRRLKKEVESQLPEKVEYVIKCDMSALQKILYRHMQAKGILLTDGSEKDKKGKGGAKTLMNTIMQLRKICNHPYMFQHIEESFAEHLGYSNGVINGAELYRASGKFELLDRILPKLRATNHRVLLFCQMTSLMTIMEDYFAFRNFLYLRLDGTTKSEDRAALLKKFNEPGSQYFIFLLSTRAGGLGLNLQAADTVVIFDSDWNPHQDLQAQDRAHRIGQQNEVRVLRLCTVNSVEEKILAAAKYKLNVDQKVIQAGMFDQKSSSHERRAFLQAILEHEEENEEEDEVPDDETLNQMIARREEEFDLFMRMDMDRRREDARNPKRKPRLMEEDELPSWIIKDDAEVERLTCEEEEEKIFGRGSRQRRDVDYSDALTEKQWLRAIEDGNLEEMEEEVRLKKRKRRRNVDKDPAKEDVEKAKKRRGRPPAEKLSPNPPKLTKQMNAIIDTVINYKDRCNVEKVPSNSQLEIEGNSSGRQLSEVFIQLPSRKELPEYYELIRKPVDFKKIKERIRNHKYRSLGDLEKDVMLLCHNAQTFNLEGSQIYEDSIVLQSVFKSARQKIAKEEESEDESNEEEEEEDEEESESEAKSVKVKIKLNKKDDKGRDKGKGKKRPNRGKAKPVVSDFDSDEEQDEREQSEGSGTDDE
Sequence of 5-hydroxytryptamine receptor 5A (P47898 whole entry): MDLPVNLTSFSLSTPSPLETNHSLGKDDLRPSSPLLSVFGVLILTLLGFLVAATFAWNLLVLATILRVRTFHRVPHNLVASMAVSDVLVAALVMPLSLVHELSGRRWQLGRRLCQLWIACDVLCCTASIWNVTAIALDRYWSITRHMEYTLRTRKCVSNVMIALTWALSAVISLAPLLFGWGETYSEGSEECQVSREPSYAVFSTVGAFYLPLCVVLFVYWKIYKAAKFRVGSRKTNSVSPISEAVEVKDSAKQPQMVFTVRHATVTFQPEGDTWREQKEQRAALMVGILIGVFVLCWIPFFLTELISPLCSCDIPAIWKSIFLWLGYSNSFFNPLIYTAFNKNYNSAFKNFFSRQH
Sequence of Photoreceptor-specific nuclear receptor (Q9Y5X4 whole entry, the tested form may be a part): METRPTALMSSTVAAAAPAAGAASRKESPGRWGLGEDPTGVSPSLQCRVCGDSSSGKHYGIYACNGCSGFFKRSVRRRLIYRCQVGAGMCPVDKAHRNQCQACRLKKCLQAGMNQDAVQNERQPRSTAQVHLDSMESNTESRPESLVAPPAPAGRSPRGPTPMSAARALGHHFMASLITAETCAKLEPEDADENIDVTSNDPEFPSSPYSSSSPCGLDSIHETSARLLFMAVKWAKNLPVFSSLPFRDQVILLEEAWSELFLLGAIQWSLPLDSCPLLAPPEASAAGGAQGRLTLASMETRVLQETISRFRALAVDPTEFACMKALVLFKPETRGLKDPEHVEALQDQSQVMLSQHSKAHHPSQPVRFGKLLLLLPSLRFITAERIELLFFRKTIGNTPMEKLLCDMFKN
Sequence of ADP-ribosylation factor GTPase-activating protein 1 (Q62848 whole entry): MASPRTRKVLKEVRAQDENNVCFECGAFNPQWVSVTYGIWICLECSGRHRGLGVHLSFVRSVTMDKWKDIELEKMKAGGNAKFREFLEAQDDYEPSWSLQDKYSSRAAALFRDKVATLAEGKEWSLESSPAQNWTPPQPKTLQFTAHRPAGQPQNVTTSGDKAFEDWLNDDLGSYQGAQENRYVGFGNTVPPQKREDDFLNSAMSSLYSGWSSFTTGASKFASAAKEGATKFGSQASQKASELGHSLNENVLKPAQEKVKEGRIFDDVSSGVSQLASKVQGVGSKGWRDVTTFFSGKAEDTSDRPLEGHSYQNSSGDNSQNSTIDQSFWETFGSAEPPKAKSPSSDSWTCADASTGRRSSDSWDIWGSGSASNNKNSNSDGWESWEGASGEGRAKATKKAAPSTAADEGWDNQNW
Sequence of Botulinum neurotoxin type F (P30996 1-436 limits assumed): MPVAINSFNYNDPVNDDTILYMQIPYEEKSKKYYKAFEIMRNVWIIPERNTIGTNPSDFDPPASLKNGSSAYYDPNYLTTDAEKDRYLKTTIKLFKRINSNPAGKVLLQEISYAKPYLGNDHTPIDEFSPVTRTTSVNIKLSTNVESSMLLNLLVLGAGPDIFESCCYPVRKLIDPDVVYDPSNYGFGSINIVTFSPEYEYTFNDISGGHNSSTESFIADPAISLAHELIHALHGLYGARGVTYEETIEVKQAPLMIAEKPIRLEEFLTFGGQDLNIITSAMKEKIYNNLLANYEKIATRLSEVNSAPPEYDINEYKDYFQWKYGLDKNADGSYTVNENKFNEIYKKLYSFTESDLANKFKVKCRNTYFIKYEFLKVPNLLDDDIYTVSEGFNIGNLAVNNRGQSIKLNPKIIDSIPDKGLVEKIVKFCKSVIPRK
Sequence of Mu-type opioid receptor (P35372 whole entry): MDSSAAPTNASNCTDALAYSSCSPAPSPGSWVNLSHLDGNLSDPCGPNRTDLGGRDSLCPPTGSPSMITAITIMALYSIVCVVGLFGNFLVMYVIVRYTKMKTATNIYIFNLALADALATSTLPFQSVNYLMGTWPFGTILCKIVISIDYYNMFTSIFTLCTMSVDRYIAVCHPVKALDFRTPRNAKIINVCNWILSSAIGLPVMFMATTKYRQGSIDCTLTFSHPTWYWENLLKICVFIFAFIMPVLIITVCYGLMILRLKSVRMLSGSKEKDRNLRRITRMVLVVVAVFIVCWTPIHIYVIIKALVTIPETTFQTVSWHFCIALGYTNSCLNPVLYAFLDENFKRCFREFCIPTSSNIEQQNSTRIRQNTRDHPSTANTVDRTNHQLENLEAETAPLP

In the case of `Cc1cnc(NC(=O)CN2CCN(c3ccccn3)CC2)s1`, the AC50 [1] is reported as 6.06 µM (active), the AC50 [2] is reported as > 52 µM (inactive) and the IC50 [3] is reported as 1.17 µM (active). For the same compound, the EC50 [4] was > 91.2 µM (inactive) and the EC50 [5] was > 91.2 µM (inactive).

With `S=C(NCCSCc1ccc(Cl)c(Cl)c1)Nc1ccccc1` the IC50 [6] was 11.1 µM (inactive), the EC50 [7] was > 260 µM (inactive) and the IC50 [8] was 3.24 µM (active). The IC50 [9] was 11.6 µM (inactive), the IC50 [10] was 6.67 µM (active) and the EC50 [11] was 14.4 µM (active). For the same compound, the IC50 [12] was 47.9 µM (inactive), the EC50 [13] was > 150 µM (not active) and the EC50 [14] was 11.2 µM (active).

In the case of `Cc1cccc2c1NC1(CCCC1)CC2C` (stereo not drawn), the CC50 [15] is reported as 24.6 µM (active), the IC50 [16] is reported as > 100 µM (active) and the EC50 [17] is reported as > 20 µM (inactive).

With `CC(=O)Nc1ccc(C(=O)Nc2nc(-c3cccnc3)cs2)cc1` the IC50 [18] was 12.1 µM (active), the IC50 [19] was 31.1 µM (inactive) and the IC50 [20] was > 66.6 µM (inactive). The IC50 [21] was 36.6 µM (inactive).

With `CCOC(=O)C1(CCc2ccccc2)CCN(Cc2ccc(NC(C)=O)cc2)CC1` the EC50 [22] was > 92.5 µM (inactive), the CC50 [23] was > 10 µM (inactive) and the EC50 [24] was 24.3 µM (inactive). The EC50 [25] was 4.5 µM (active) and the EC50 [26] was 0.0267 µM (active).

With `COc1ccc(N(CC(=O)NCCSc2ccccc2)S(=O)(=O)c2ccccc2)c(OC)c1` the AC50 [27] was 38.4 µM (active) and the IC50 [28] was 10.8 µM (active).
